According to patent US20050245399A1, “Pyrazole derivatives as herbicidal compositions containing them” (ISHIHARA SANGYO KAISHA, LTD., priority 2004, published 2005):

Tests used:
Format in all cases: in vivo
[1] = test system: barnyardgrass (Echinochloa crus-galli L.): ECHCG; test: Test Example 1 pre-emergence herbicidal activity, ECHCG; details: Rate 63 g a.i./ha, visually observed 20th to 23rd day after application
Procedure, shortened: (§1)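 Compound was delivered by small sprayer to sown upland soil one day after sowing, before emergence, at 500 L/ha spray volume. Plant growth was assessed visually around 3 weeks later (days 20–23), 100% denoting complete kill.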

[2] = test system: crabgrass (Digitaria sanguinalis L.): DIGSA; test: Test Example 1 pre-emergence herbicidal activity, DIGSA; details: Rate 63 g a.i./ha, visually observed 20th to 23rd day after application
Procedure, shortened: as §1

[3] = test system: green foxtail (Setaria viridis L.): SETVI; test: Test Example 1 pre-emergence herbicidal activity, SETVI; details: Rate 63 g a.i./ha, visually observed 20th to 23rd day after application
Procedure, shortened: as §1

[4] = test system: redroot pigweed (Amaranthus retroflexus L.): AMARE; test: Test Example 1 pre-emergence herbicidal activity, AMARE; details: Rate 63 g a.i./ha, visually observed 20th to 23rd day after application
Procedure, shortened: as §1

[5] = test system: prickly sida (Sida spinosa L.): SEDSP; test: Test Example 1 pre-emergence herbicidal activity, SIDSP; details: Rate 63 g a.i./ha, visually observed 20th to 23rd day after application
Procedure, shortened: as §1

[6] = test system: velvetleaf (Abutilon theophrasti): ABUTH; test: Test Example 1 pre-emergence herbicidal activity, ABUTH; details: Rate 63 g a.i./ha, visually observed 20th to 23rd day after application
Procedure, shortened: as §1

[7] = test system: rice (Oryza sativa L.): ORYSA; test: Test Example 1 pre-emergence herbicidal activity, ORYSA; details: Rate 63 g a.i./ha, visually observed 20th to 23rd day after application
Procedure, shortened: as §1

[8] = test system: wheat (Triticum aestivum L.): TRZAX; test: Test Example 1 pre-emergence herbicidal activity, TRZAX; details: Rate 63 g a.i./ha, visually observed 20th to 23rd day after application
Procedure, shortened: as §1

[9] = test system: corn (Zea mays L.): ZEAMX; test: Test Example 1 pre-emergence herbicidal activity, ZEAMX; details: Rate 63 g a.i./ha, visually observed 20th to 23rd day after application
Procedure, shortened: as §1

[10] = test system: soybean (Glycine max Merr.): GLXMA; test: Test Example 1 pre-emergence herbicidal activity, GLXMA; details: Rate 63 g a.i./ha, visually observed 20th to 23rd day after application
Procedure, shortened: as §1

[11] = test system: barnyardgrass (Echinochloa crus-galli L.), ECHCG; test: Test Example 2 post-emergence (foliage treatment) herbicidal activity, ECHCG; details: 63 g a.i./ha
Procedure, shortened: (§2)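 Greenhouse pot test with upland field soil. Treatment: foliage spray, active ingredient at a predetermined amount, 500 L/ha, spreader 0.1% (v/v); leaf stage 0.1-1.5 (AMARE), 1.1-2.1 (ECHCG), 1.0-2.0 (DIGSA), 1.0-2 (ORYSA). Endpoint: visual % control, d20-23.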

[12] = test system: crabgrass (Digitaria sanguinalis L.), DIGSA; test: Test Example 2 post-emergence (foliage treatment) herbicidal activity, DIGSA; details: 63 g a.i./ha
Procedure, shortened: as §2

[13] = test system: redroot pigweed (Amaranthus retroflexus L.), AMARE; test: Test Example 2 post-emergence (foliage treatment) herbicidal activity, AMARE; details: 63 g a.i./ha
Text: (§3) Upland field soil was put into a 1/170,000 ha pot, and seeds of various plants were sown. Then, when the plants reached predetermined leaf stages {1. barnyardgrass (Echinochloa crus-galli L.), ECHCG: 1.1-2.1 leaf stage, 2. crabgrass (Digitaria sanguinalis L.), DIGSA: 1.0-2.0 leaf stage, 3. green foxtail (Setaria viridis L.), SETVI: 1.0-2.2 leaf stage, 4. redroot pigweed (Amaranthus retroflexus L.), AMARE: 0.1-1.5 leaf stage, 5. prickly sida (Sida spinosa L.), SIDSP: 0.1-0.6 leaf stage, 6. velvetleaf (Abutilon theophrasti), ABUTH: 0.1-0.6 leaf stage, 7. common cocklebur (Xanthium strumarium L.), XANST: 0.1 leaf stage, 8. rice (Oryza sativa L.), ORYSA; 1.0-2 leaf stage, 9. wheat (Triticum aestivum L.), TRZAX: 2.3-3.5 leaf stage, 10. corn (Zea mays L.), ZEAMXN 2.1-2.6 leaf stage, 11. soybean (Glycine max Merr.), GLXMA: primary leaf stage}, a wettable powder or emulsifiable concentrate having the compound of the present invention formulated in accordance with a usual formulation method, was weighed so that the active ingredient would be a predetermined amount, and diluted with water in an amount of 500 L/ha. To the diluted solution, 0.1% (v/v) of an agricultural spreader was added. The herbicide adjusted was applied by a small size sprayer for foliage treatment. On the 20th to 23rd day after the application of the herbicide, the growth of the respective plants was visually observed, and the herbicidal effects were evaluated by growth controlling degrees (%) ranging from 0 (equivalent to the untreated control) to 100 (complete kill), whereby the results shown in Table 5, were obtained. Compound Nos. in Table 5 correspond to Compound Nos. in Table 1 and 2 given hereinbefore.

[14] = test system: prickly sida (Sida spinosa L.), SIDSP; test: Test Example 2 post-emergence (foliage treatment) herbicidal activity, SIDSP; details: 63 g a.i./ha
Text: as §3

[15] = test system: velvetleaf (Abutilon theophrasti), ABUTH; test: Test Example 2 post-emergence (foliage treatment) herbicidal activity, ABUTH; details: 63 g a.i./ha
Procedure, shortened: (§4)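 Foliar spray of formulated compound (500 L/ha dilution water, 0.1% v/v spreader) onto young potted plants at defined leaf stages. Scored 0-100% by visual inspection 20-23 d post-spray.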

[16] = test system: rice (Oryza sativa L.), ORYSA; test: Test Example 2 post-emergence (foliage treatment) herbicidal activity, ORYSA; details: 63 g a.i./ha
Procedure, shortened: as §2

[17] = test system: wheat (Triticum aestivum L.), TRZAX; test: Test Example 2 post-emergence (foliage treatment) herbicidal activity, TRZAX; details: 63 g a.i./ha
Procedure, shortened: as §4

[18] = test system: corn (Zea mays L.), ZEAMX; test: Test Example 2 post-emergence (foliage treatment) herbicidal activity, ZEAMX; details: 63 g a.i./ha
Procedure, shortened: as §4

[19] = test system: soybean (Glycine max Merr.), GLXMA; test: Test Example 2 post-emergence (foliage treatment) herbicidal activity, GLXMA; details: 63 g a.i./ha
Procedure, shortened: as §4

[20] = test system: green foxtail (Setaria viridis L.), SETVI; test: Test Example 2 post-emergence (foliage treatment) herbicidal activity, SETVI; details: 63 g a.i./ha
Procedure, shortened: as §4

SMILES | Pre-emergence Herbicidal Activity ECHCG (growth controlling degree) [1] | Pre-emergence Herbicidal Activity DIGSP (growth controlling degree) [2] | Pre-emergence Herbicidal Activity SETVI (growth controlling degree) [3] | Pre-emergence Herbicidal Activity AMARE (growth controlling degree) [4] | Pre-emergence Herbicidal Activity SIDSP (growth controlling degree) [5] | Pre-emergence Herbicidal Activity ABUTH (growth controlling degree) [6] | Pre-emergence Herbicidal Activity ORYSA (growth controlling degree) [7] | Pre-emergence Herbicidal Activity TRZAX (growth controlling degree) [8] | Pre-emergence Herbicidal Activity ZEAMX (growth controlling degree) [9] | Pre-emergence Herbicidal Activity GLXMA (growth controlling degree) [10] | growth controlling degree, ECHCO [11] | growth controlling degree, DIGSP [12] | growth controlling degree, AMARE [13] | growth controlling degree, SIDSP [14] | growth controlling degree, ABUTH [15] | growth controlling degree, ORYSA [16] | growth controlling degree, TRZAX [17] | growth controlling degree, ZEAMX [18] | growth controlling degree, GLXMA [19] | growth controlling degree, SETVI [20]
COc1c(Cl)cc(F)c(-c2nn(C)c(OC(F)F)c2Cl)c1NC(=O)CCc1ccccc1C [Compound 1-37] | 60% | 100% | 80% | 100% | 95% | 40% | 20% | 30% | 0% | 0% | 98% | 80% | 100% | 100% | 100% | 90% | 50% | 70% | 98% | 
COc1c(Cl)cc(F)c(-c2nn(C)c(OC(F)F)c2Cl)c1NC(=O)C=Cc1ccccc1C [Compound 1-253] | 20% | 70% | 50% | 100% | 30% | 40% | 10% | 0% | 0% | 0% | 80% | 30% | 100% | 100% | 100% | 70% | 50% | 40% | 80% | 100%
COc1c(Cl)cc(F)c(-c2nn(C)c(OC(F)F)c2Cl)c1NCCc1cccc(C)c1 [Compound 1-50] | 70% | 100% | 100% | 100% | 100% | 100% | 20% | 30% | 10% | 10% | 100% | 90% | 100% | 100% | 100% | 95% | 70% | 80% | 95% | 
COc1c(Cl)cc(F)c(-c2nn(C)c(OC(F)F)c2Cl)c1NC(=O)C(C)(C)OC(C)=O [Compound 1-44] | 10% | 100% | 20% | 100% | 100% | 60% | 10% | 10% | 0% | 0% | 50% | 60% | 100% |  | 100% | 50% | 20% | 10% | 40% | 80%
COc1c(Cl)cc(F)c(-c2nn(C)c(OC(F)F)c2Cl)c1NC(=O)c1cccc(C)c1 [Compound 1-260] | 60% | 100% | 100% | 100% | 70% | 40% | 50% | 30% | 10% | 0% | 100% | 95% | 100% |  | 100% | 60% | 40% | 60% | 70% | 100%
COc1c(Cl)cc(F)c(-c2nn(C)c(OC(F)F)c2Cl)c1NC(=O)C1CC1 [Compound 1-264] | 100% | 100% | 60% | 100% | 100% | 80% | 50% | 20% | 0% | 0% | 80% | 100% | 100% |  | 100% | 80% | 40% | 50% | 70% | 100%
